# Earlier results, collected in patent publication US8329187B2, “Compositions of spores of non pathogenic bacteria” (Neuroscienze Pharmaness S.C. A.R.L., priority 2009, dated 2012).
# System: gastrointestinal transit
# Settings: shown in example 6 of EP 1,602,658
compound,measurement,value
Cc1c(C(=O)c2cccc3ccccc23)c2cccc3c2n1[C@H](CN1CCOCC1)CO3 [WIN 55.212-2],effect on gastrointestinal transit (constipating activity),slackens the gastrointestinal transit
